# Laboratory results published in patent US20240083853A1, “HSD17B13 INHIBITORS AND USES THEREOF” (FL2022-001, Inc., priority 2020, published 2024).
# Target: T1, Recombinant human HSD17B13 enzyme (Homo sapiens, UniProt Q7Z5P4)
# T1 sequence (Q7Z5P4 20-300): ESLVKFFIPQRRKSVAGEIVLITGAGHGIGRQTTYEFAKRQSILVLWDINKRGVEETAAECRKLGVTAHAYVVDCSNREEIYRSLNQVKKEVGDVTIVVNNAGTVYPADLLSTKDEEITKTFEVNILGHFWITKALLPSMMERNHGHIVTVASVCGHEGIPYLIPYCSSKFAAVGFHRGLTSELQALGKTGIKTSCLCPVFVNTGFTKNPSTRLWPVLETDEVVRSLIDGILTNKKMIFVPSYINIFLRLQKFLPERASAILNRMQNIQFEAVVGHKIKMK
# Test: HSD17b13 NAD(P)H-Glo biochemical assay
# Settings: 50 uM estradiol, 1 mM NAD+, NAD(P)H-Glo luminescence; read-out: HSD17β13 IC50
# In short: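 Recombinant human HSD17B13 in 20 mM Tris pH7.4 with 0.002% Tween-20 and 0.02% BSA was preincubated with inhibitor for 20 minutes at RT. The reaction ran 3 hours at 37° C with 50 uM estradiol and 1 mM NAD+ (final). NADH formed was detected by NAD(P)H-Glo luminescence after 1 hour at RT.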
row,SMILES,IC50
1,"C[C@@H]1CN(c2ccc(-n3ncc4cc(F)c(O)c(F)c43)cc2)C[C@H](C)S1 [Compound 32.4, 1-(4-(cis-2,6-Dimethylthiomorpholino)phenyl)-5,7-difluoro-1H-indazol-6-ol]",< 100 nM
2,"O=S1(=O)CCN(c2ccc(-n3ncc4cc(F)c(O)c(F)c43)cc2)CC1 [Compound 23.5, 4-(4-(5,7-Difluoro-6-hydroxy-1H-indazol-1-yl)phenyl)thiomorpholine 1,1-dioxide]",100 to 1000 nM
3,"COC1(C)CCN(c2ccc(-n3ncc4cc(F)c(O)c(F)c43)cc2)CC1 [Compound 20.20, 5,7-Difluoro-1-(4-(4-methoxy-4-methylpiperidin-1-yl)phenyl)-1H-indazol-6-ol]",< 100 nM
4,"CC1(C)CCN(c2ccc(-n3ncc4cc(F)c(O)c(F)c43)nc2)CC1 [Compound 26.3, 1-(5-(4,4-Dimethylpiperidin-1-yl)pyridin-2-yl)-5,7-difluoro-1H-indazol-6-ol]",< 100 nM
5,"Oc1c(F)cc2nnn(-c3ccc(N4CCOC[C@@H]4c4ccccc4)cc3)c2c1F [Compound 26.29, (S)-5,7-Difluoro-1-(4-(3-phenylmorpholino)phenyl)-1H-benzo[d][1,2,3]triazol-6-ol]",100 to 1000 nM
6,"CC1(C)CCN(c2ccc(-n3c(=O)oc4c(Br)c(F)c(O)c(F)c43)cc2)CC1 [Compound 38, 7-Bromo-3-(4-(4,4-dimethylpiperidin-1-yl)phenyl)-4,6-difluoro-5-hydroxybenzo[d]oxazol-2(3H)-one]",< 100 nM
7,"NS(=O)(=O)c1ccc(-c2ccc(-n3ncc4cc(F)c(O)cc43)cc2)cc1 [Compound 13.38, 4′-(5-Fluoro-6-hydroxy-1H-indazol-1-yl)-[1,1′-biphenyl]-4-sulfonamide]",< 100 nM
8,"O=C(O)c1ccc(-c2ccc(-n3ncc4cc(F)c(O)cc43)cc2)cc1 [Compound 13.30, 4′-(5-Fluoro-6-hydroxy-1H-indazol-1-yl)-[1,1′-biphenyl]-4-carboxylic acid]",1000 to 30000 nM
9,"CC1(C)CCN(c2ccc(-n3ncc4cc(F)c(O)c(F)c43)cc2)C1 [Compound 23.11, 1-(4-(3,3-Dimethylpyrrolidin-1-yl)phenyl)-5,7-difluoro-1H-indazol-6-ol]",< 100 nM
10,"CS(=O)(=O)N1CCN(c2ccc(-n3ncc4c(C(F)(F)F)c(F)c(O)cc43)cc2)CC1 [Compound 4.1, 5-Fluoro-1-(4-(4-(methylsulfonyl)piperazin-1-yl)phenyl)-4-(trifluoromethyl)-1H-indazol-6-ol]",100 to 1000 nM
11,"CC1(C)CCN(c2ccc(-n3c(Cl)nc4cc(F)c(O)c(F)c43)cc2)CC1 [Compound 21.9, 2-Chloro-1-(4-(4,4-dimethylpiperidin-1-yl)phenyl)-5,7-difluoro-1H-benzo[d]imidazol-6-ol]",100 to 1000 nM
12,"CC1(C)CCN(c2ccc(N3C(=O)C(=O)c4cc(F)c(O)c(F)c43)cc2)CC1 [Compound 7.2, 1-(4-(4,4-Dimethylpiperidin-1-yl)phenyl)-5,7-difluoro-6-hydroxyindoline-2,3-dione]",100 to 1000 nM
13,"CC1(C)CCN(c2ccc(-n3c(=O)[nH]c4cc(F)c(O)c(F)c43)cc2)CC1 [Compound 11, 1-(4-(4,4-Dimethylpiperidin-1-yl)phenyl)-5,7-difluoro-6-hydroxy-1H-benzo[d]imidazol-2(3H)-one]",< 100 nM
14,"CS(=O)(=O)N1CC(c2ccc(-n3ncc4cc(F)c(O)c(F)c43)cc2)C1 [Compound 30, 5,7-Difluoro-1-(4-(1-(methylsulfonyl)azetidin-3-yl)phenyl)-1H-indazol-6-ol]",100 to 1000 nM
15,"Oc1c(F)cc2cnn(-c3ccc(N4CCCC4)cc3)c2c1F [Compound 23.10, 5,7-Difluoro-1-(4-(pyrrolidin-1-yl)phenyl)-1H-indazol-6-ol]",< 100 nM
16,"CS(=O)(=O)N1CCC(c2ccc(-n3ncc4cc(F)c(O)c(F)c43)cc2)CC1 [Compound 27.7, 5,7-Difluoro-1-(4-(1-(methylsulfonyl)piperidin-4-yl)phenyl)-1H-indazol-6-ol]",< 100 nM
17,"COC1CCN(c2ccc(-n3ncc4cc(F)c(O)c(F)c43)cc2)C1 (stereo not drawn) [Compound 22.5, 5,7-Difluoro-1-(4-(3-methoxypyrrolidin-1-yl)phenyl)-1H-indazol-6-ol]",< 100 nM
18,"CS(=O)(=O)N1CCN(c2ccc(-n3ncc4cc(F)c(O)c(F)c43)cc2Cl)CC1 [Compound 19.1, 1-(3-Chloro-4-(4-(methylsulfonyl)piperazin-1-yl)phenyl)-5,7-difluoro-1H-indazol-6-ol]",< 100 nM
19,"CS(=O)(=O)N1CC=C(c2ccc(-n3ncc4cc(F)c(O)c(F)c43)cc2)CC1 [Compound 27.4, 5,7-Difluoro-1-(4-(1-(methylsulfonyl)-1,2,3,6-tetrahydropyridin-4-yl)phenyl)-1H-indazol-6-ol]",< 100 nM
20,"CC1(C)CCC(c2ccc(-n3ncc4cc(F)c(O)c(F)c43)cc2)CC1 [Compound 27, 1-(4-(4,4-Dimethylcyclohexyl)phenyl)-5,7-difluoro-1H-indazol-6-ol]",< 100 nM
21,"CS(=O)(=O)N1CCN(c2ccc(-n3nnc4cc(F)c(O)c(F)c43)cn2)CC1 [Compound 26.13, 5,7-Difluoro-1-(6-(4-(methylsulfonyl)piperazin-1-yl)pyridin-3-yl)-1H-benzo[d][1,2,3]triazol-6-ol]",100 to 1000 nM
22,"Cc1ccccc1-c1ccc(-n2ncc3cc(F)c(O)cc32)cc1 [Compound 13.9, 5-Fluoro-1-(2′-methyl-[1,1′-biphenyl]-4-yl)-1H-indazol-6-ol]",100 to 1000 nM
23,"C[C@@H]1CN(c2ccc(-n3ncc4cc(F)c(O)c(F)c43)cc2)C[C@@H](C)O1 [Compound 24.10, 1-(4-((2R,6R)-2,6-Dimethylmorpholino)phenyl)-5,7-difluoro-1H-indazol-6-ol]",< 100 nM
24,"CS(=O)(=O)c1ccc(-c2ccc(-n3ncc4cc(F)c(O)cc43)cc2)cc1 [Compound 13.26, 5-Fluoro-1-(4′-(methylsulfonyl)-[1,1′-biphenyl]-4-yl)-1H-indazol-6-ol]",100 to 1000 nM
25,"Oc1c(F)cc2nnn(-c3ccc(N4CCOC[C@H]4c4ccccc4)cc3)c2c1F [Compound 26.28, (R)-5,7-Difluoro-1-(4-(3-phenylmorpholino)phenyl)-1H-benzo[d][1,2,3]triazol-6-ol]",100 to 1000 nM
26,"N#Cc1ccc(-c2ccc(-n3ncc4cc(F)c(O)c(F)c43)cc2)cn1 [Compound 14, 5-(4-(5,7-Difluoro-6-hydroxy-1H-indazol-1-yl)phenyl)picolinonitrile]",< 100 nM
27,"CC1(C)CCN(c2ccc(-n3c(=O)sc4cc(F)c(O)c(F)c43)cc2)CC1 [Compound 7.3, 3-(4-(4,4-Dimethylpiperidin-1-yl)phenyl)-4,6-difluoro-5-hydroxybenzo[d]thiazol-2(3H)-one]",100 to 1000 nM
28,"Nc1ccc(-c2ccc(-n3ncc4cc(F)c(O)cc43)cc2)cc1 [Compound 13.28, 1-(4′-Amino-[1,1′-biphenyl]-4-yl)-5-fluoro-1H-indazol-6-ol]",100 to 1000 nM
29,"CC1(C#N)CCN(c2ccc(-n3ncc4cc(F)c(O)c(F)c43)cc2)CC1 [Compound 23.21, 1-(4-(5,7-Difluoro-6-hydroxy-1H-indazol-1-yl)phenyl)-4-methylpiperidine-4-carbonitrile]",< 100 nM

# Same assay, conditions: 3 h; at 10 uM compound; read-out: HSD17β13 % at 10 uM
row,SMILES,inhibition at 10 µM
1,"CS(=O)(=O)N1CCN(c2cnc(-n3nnc4cc(F)c(O)c(F)c43)nc2)CC1 [Compound 26.22, 5,7-Difluoro-1-(5-(4-(methylsulfonyl)piperazin-1-yl)pyrimidin-2-yl)-1H-benzo[d][1,2,3]triazol-6-ol]",45%
